{
  "source": "patent US20250144050A1",
  "about": "“AMINOTHIOL-CONJUGATES, COMPOSITIONS, AND METHODS OF USE THEREOF” (THE BURLINGTON HC RESEARCH GROUP, INC., priority 2021, published 2025)",
  "key": {"NCI-H460 NSCLC cells": {"test_system": "NCI-H460 NSCLC cells", "format": "cell-based", "details": "NCI-H460; each drug alone; 48 h", "quoted_text": "(§1) Trypan Blue exclusion was applied as a complementary confirmation probe for cell death.\n(§2) Statistical comparisons of differences in individual dose-response metrics between individual/paired drug treatments and various cell lines were conducted using the Student's t-test, with P-values <0.05 considered significant.\n(§3) Relative cell growth inhibition values for differing levels each drug alone and in combination were input into SynergyFinder to generated dose-response curves for each drug alone, to produce a dose-response matrix, to visualize the distribution of areas of differing degrees of synergism in a 2-dimension heatmap and 3-dimension volcano plot, and to calculate average and maximum synergy scores in selected human cancer cell lines. […] Synergy scores <10 means that the interaction between two drugs was likely to be antagonistic; scores from −10 to 10 means the interaction between two drugs was likely to be additive; and scores >10 means the interaction between two drugs was likely to be synergistic."}, "[1]": {"test_system": "HMESO-1 malignant mesothelioma cells", "format": "cell-based", "details": "HMESO-1; each drug alone; 48 h", "quoted_text": "as §1, §2, §3"}, "[2]": {"test_system": "PPM-Mill malignant mesothelioma cells", "format": "cell-based", "details": "PPM-Mill; each drug alone; 48 h", "quoted_text": "as §1, §2, §3"}, "[3]": {"test_system": "SKOV3 ovarian cancer cells", "format": "cell-based", "quoted_text": "as §1, §2, §3"}, "[4]": {"test_system": "TOV21G ovarian cancer cells", "format": "cell-based", "details": "TOV21G, 48 h", "quoted_text": "as §1, §2, §3"}, "MDA-MB-231 cells": {"test_system": "MDA-MB-231 cells", "details": "cited from earlier work"}, "metastatic melanoma": {"test_system": "metastatic melanoma", "details": "patients with advanced malignant melanoma; cited from earlier work"}, "C3H/10T1/2 cells": {"test_system": "C3H/10T1/2 cells", "details": "1 milliM; before, during, and after radiation exposure; cited from earlier work"}, "[5]": {"details": "injection at 500-910 mg/m^2; cited from earlier work"}, "[6]": {"details": "some in vitro studies; cited from earlier work"}, "[7]": {"details": "mice, cited from earlier work"}, "human cancer cell lines": {"test_system": "human cancer cell lines", "test": "CyQUANT cell viability assay, 48-hour exposure, panel averages", "details": "for GI50: Homo sapiens, 48 h", "procedure": "After drug treatments, fluorescence readings from 96-well plates were obtained using the CyQUANT dye and compared to standard curves for each cell line to determine cell viability. […] Trypan blue exclusion was used to estimate cell numbers in a few pilot experiments and was thereafter applied to confirm cell death.\nA series of experiments was conducted to assess the relative efficacy of 4SP65, 1LP65, and amifostine as single agents in the same human cancer cell lines. First, the effectiveness of 4SP65 was tested against 15 cancer cell lines derived from seven tissues. […] The effectiveness of 0 to ≤500 μM amifostine was tested in sets of cancer cell lines reported to have either medium, high, or no expression of alkaline phosphatase.\nTrans. R Soc. Lond. […] Using cell numbers based on fluorescence measurements and standard curves [time zero, (Tz), control growth, (C), and test growth in the presence of drug at five or more concentration levels (Ti)], the percentage growth was calculated at each drug concentration level. The percentage of growth inhibition was calculated as follows:\nThe LC50/99 was calculated using Equation 2=−50 and Eq. 2=−99, respectively. […] For NHMECs, the relationships between drug exposure levels and fluorescence units were used to define dose-response metrics. The selectivity index (SI) values for individual drug treatments were calculated as IC50 levels in NHMECs divided by the IC50 values in cancer cell lines."}, "radiation-induced tumors": {"test_system": "radiation-induced tumors", "details": "WR2721 plus radiation (87% with radiation alone); cited from earlier work"}, "[8]": {"details": "400 mg/kg; 206 cGy gamma rays; female mice; cited from earlier work"}, "mouse splenocytes": {"test_system": "mouse splenocytes", "details": "cited from earlier work"}, "angiostatin": {"test_system": "angiostatin", "details": "cited from earlier work"}, "Sa-NH sarcoma cells": {"test_system": "Sa-NH sarcoma cells", "details": "50 mg/kg every other day for 6 days; delayed from 12 days; cited from earlier work"}, "[9]": {"details": "cited from earlier work"}, "[10]": {"details": "Children; cited from earlier work"}, "PC3 cells": {"test_system": "PC3 cells", "details": "cited from earlier work"}, "H1975 cells": {"test_system": "H1975 cells", "details": "H1975, each drug alone, 48 h", "quoted_text": "as §1, §2, §3"}, "[11]": {"details": "cited from earlier work", "remark": "listed apart in the source"}, "[12]": {"details": "each drug alone, 48 h, cisplatin series"}, "[13]": {"details": "each drug alone, 48 h, gefitinib series"}},
  "note": "Read-outs that look alike come from different tables or passages of the source.",
  "data": [
    {"compound": "N.N.[Cl][Pt][Cl]", "note": "[cisplatin, reference compound]", "values": [
      {"measurement": "GI50", "setting": "NCI-H460 NSCLC cells", "result": "3.1 ± 0.1", "unit": "µM"},
      {"measurement": "IC50", "setting": "NCI-H460 NSCLC cells", "result": "4 ± 0.1", "unit": "µM"},
      {"measurement": "LC99", "setting": "NCI-H460 NSCLC cells", "result": "ND (>15) μM"},
      {"measurement": "TGI", "setting": "NCI-H460 NSCLC cells", "result": "ND (>15) μM"},
      {"measurement": "GI50", "setting": "[1]", "result": "3 ± 0.4", "unit": "µM"},
      {"measurement": "IC50", "setting": "[1]", "result": "8.6 ± 1.1", "unit": "µM"},
      {"measurement": "LC99", "setting": "[1]", "result": "ND (>15) μM"},
      {"measurement": "TGI", "setting": "[1]", "result": "6.7 ± 0.7", "unit": "µM"},
      {"measurement": "GI50", "setting": "[2]", "result": "27.2 ± 3.4", "unit": "µM"},
      {"measurement": "IC50", "setting": "[2]", "result": "40.5 ± 8.1", "unit": "µM"},
      {"measurement": "LC99", "setting": "[2]", "result": "ND (>100) μM"},
      {"measurement": "TGI", "setting": "[2]", "result": "ND (>100) μM"},
      {"measurement": "GI50", "setting": "[3]; SKOV3, each drug alone, 48 h", "result": "5.3 ± 0.4", "unit": "µM"},
      {"measurement": "IC50", "setting": "[3]; SKOV3, each drug alone, 48 h", "result": "6.7 ± 0.6", "unit": "µM"},
      {"measurement": "LC99", "setting": "[3]; SKOV3, each drug alone, 48 h", "result": "ND (>21) μM"},
      {"measurement": "TGI", "setting": "[3]; SKOV3, each drug alone, 48 h", "result": "ND (>21) μM"},
      {"measurement": "LC99, amount of each drug in combination", "setting": "[4]; 4SP65-cisplatin combined", "result": 5.9, "unit": "µM"},
      {"measurement": "GI50", "setting": "[4]; each drug alone", "result": "2.2 ± 0.4", "unit": "µM"},
      {"measurement": "IC50", "setting": "[4]; each drug alone", "result": "3 ± 0.3", "unit": "µM"},
      {"measurement": "LC99", "setting": "[4]; each drug alone", "result": 17.2, "unit": "µM"},
      {"measurement": "TGI", "setting": "[4]; each drug alone", "result": "6.7 ± 0.3", "unit": "µM"},
      {"measurement": "LC99", "setting": "[4]; each drug alone, listed as DDP", "result": "17.2 ± 5.2", "unit": "µM"},
      {"measurement": "reduction in starting cell numbers", "setting": "A549 NSCLC cells; 6 μM cisplatin alone", "result": 56, "unit": "%"},
      {"measurement": "LC99, amount of each drug in combination", "setting": "A549 NSCLC cells; 4SP65-cisplatin combined, 48 h", "result": 7, "unit": "µM"},
      {"measurement": "GI50", "setting": "A549 NSCLC cells; [12]", "result": "3.5 ± 0.7", "unit": "µM"},
      {"measurement": "IC50", "setting": "A549 NSCLC cells; [12]", "result": "4.7 ± 0.8", "unit": "µM"},
      {"measurement": "LC99", "setting": "A549 NSCLC cells; [12]", "result": "24.4 ± 2.6", "unit": "µM"},
      {"measurement": "TGI", "setting": "A549 NSCLC cells; [12]", "result": "8.2 ± 1.0", "unit": "µM"},
      {"measurement": "GI50", "setting": "MDA-MB-231 cells", "result": 22.4, "unit": "µM"},
      {"measurement": "partial response", "setting": "metastatic melanoma", "result": 10, "unit": "%"}
    ]},
    {"compound": "NCCCNCCS", "note": "[WR1065, 2-(3-aminopropyl)aminoethanethiol]", "values": [
      {"measurement": "protection factor", "setting": "C3H/10T1/2 cells", "result": 3.23},
      {"measurement": "peak plasma level", "setting": "[5]", "result": "~100", "unit": "µM"},
      {"measurement": "plasma T1/2", "setting": "[5]", "result": "~0.167", "unit": "h"},
      {"measurement": "lowest efficacious concentration", "setting": "[6]", "result": 0.4, "unit": "µM"},
      {"measurement": "maximally tolerated dose (MTD)", "setting": "[7]; i.p.", "result": 432, "unit": "mg/kg BW"},
      {"measurement": "maximally tolerated dose (MTD)", "setting": "[7]; p.o.", "result": 720, "unit": "mg/kg BW"}
    ]},
    {"compound": "NCCCNCCSP(=O)(O)O", "note": "[amifostine]", "values": [
      {"measurement": "GI50", "setting": "human cancer cell lines; read-out: GI50, range, four of 14 cell lines with moderate/high alkaline phosphatase expression, 48 hours", "result": "47 to 81", "unit": "µM"},
      {"measurement": "GI50", "setting": "human cancer cell lines; read-out: GI50, range, seven of 14 cell lines, 48 hours", "result": "113 to 378", "unit": "µM"},
      {"measurement": "GI50", "setting": "human cancer cell lines; read-out: exposure failing to induce growth inhibitory effects (GI50), three of 14 cell lines, 48 hours", "result": "> 500", "unit": "µM"},
      {"measurement": "exposure without cytolytic effects (LC50/LC99)", "setting": "human cancer cell lines; any of 14 cell lines, 48 hours", "result": "> 500", "unit": "µM"},
      {"measurement": "concentration inducing TGI level effects", "setting": "human cancer cell lines; only HCC38 and PC3", "result": "> 100", "unit": "µM"},
      {"measurement": "mice developing tumors", "setting": "radiation-induced tumors", "result": 26, "unit": "%"},
      {"measurement": "extension of total life expectancy", "setting": "[8]", "result": 65, "unit": "days"},
      {"measurement": "reduction of cyclophosphamide-induced HPRT mutations", "setting": "mouse splenocytes", "result": 8, "unit": "fold"},
      {"measurement": "change of angiostatin levels", "setting": "angiostatin; 200 mg/ml (instead of 50 mg/ml)", "result": "did not change angiostatin levels"},
      {"measurement": "increase of serum angiostatin levels", "setting": "angiostatin; mouse, in vivo", "result": 4, "unit": "fold"},
      {"measurement": "days for tumors to reach ideal size for amputation", "setting": "Sa-NH sarcoma cells", "result": 13, "unit": "days"},
      {"measurement": "level with no observable cytotoxicity", "setting": "[9]; kidney (in vivo)", "result": "> 17,000 picomol/10 (6) cells"},
      {"measurement": "level with no observable cytotoxicity", "setting": "[9]; liver (in vivo)", "result": "> 7400 picomol/10 (6) cells"},
      {"measurement": "level with no observable cytotoxicity", "setting": "[9]; small intestine (in vivo)", "result": "> 3000 picomol/10 (6) cells"},
      {"measurement": "single dose with no untoward effects", "setting": "[10]", "result": "up to 2700 mg/m2"}
    ]},
    {"compound": "CC(=O)O[C@H]1C(=O)[C@@]2(C)[C@H]([C@H](OC(=O)c3ccccc3)[C@]3(O)C[C@H](OC(=O)[C@H](O)[C@@H](NC(=O)c4ccccc4)c4ccccc4)C(C)=C1C3(C)C)[C@]1(OC(C)=O)CO[C@@H]1C[C@@H]2O", "note": "[paclitaxel, reference compound]", "values": [
      {"measurement": "fold lower dose than 1LP65 at the GI50 level", "setting": "[3]; SKOV3 cells", "result": 77, "unit": "fold"},
      {"measurement": "GI50", "setting": "PC3 cells", "result": 36.4, "unit": "µM"}
    ]},
    {"compound": "COc1cc2ncnc(Nc3ccc(F)c(Cl)c3)c2cc1OCCCN1CCOCC1", "note": "[gefitinib, reference compound]", "values": [
      {"measurement": "LC99", "setting": "A549 NSCLC cells; [13]", "result": "ND (>25) μM"},
      {"measurement": "TGI", "setting": "A549 NSCLC cells; [13]", "result": "> 25", "unit": "µM"},
      {"measurement": "TGI", "setting": "A549 NSCLC cells; each drug alone, 48 h, gefitinib series, listed as GEF", "result": "ND (>25) μM"},
      {"measurement": "LC99", "setting": "H1975 cells", "result": "ND (>25) μM"},
      {"measurement": "TGI", "setting": "H1975 cells", "result": "> 25", "unit": "µM"},
      {"measurement": "TGI", "setting": "H1975 cells; listed as GEF", "result": "ND (>25) μM"},
      {"measurement": "Cmax", "setting": "[11]; 250 mg daily, cancer patients, read-out: Cmax plasma concentrations", "result": "500 to 1000", "unit": "nM"},
      {"measurement": "trough levels", "setting": "[11]; after 3 days of treatment", "result": "0.257 to 4.50", "unit": "µM"},
      {"measurement": "trough levels", "setting": "[11]; after 8 days of treatment", "result": "0.282 to 6.55", "unit": "µM"},
      {"measurement": "elimination half-life", "setting": "[11]; in vivo", "result": 48, "unit": "h"}
    ]},
    {"compound": "CNCCCNCCCS", "note": "[WR151326]", "values": [
      {"measurement": "protection factor", "setting": "C3H/10T1/2 cells", "result": 1.8}
    ]}
  ]
}
